Results on 3 molecules are retold here after ChEMBL document CHEMBL1201862, “PubChem BioAssay data set” (2004).

Targets include Aurora kinase B (Homo sapiens, UniProt Q96GD4); Aurora kinase A (Homo sapiens, UniProt O14965); Focal adhesion kinase 1 (Homo sapiens, UniProt Q05397).
Common to all, as to assay type: functional
Experiment [1] addresses Dual specificity tyrosine-phosphorylation-regulated kinase 1B (Homo sapiens, UniProt Q9Y463). The experiment can be described thus: Navigating the Kinome. Panel member name: DYRK1B.
The target in experiment [2] is Casein kinase I isoform alpha (Homo sapiens, UniProt P48729).
Experiment [3] addresses cAMP-dependent protein kinase catalytic subunit alpha (Homo sapiens, UniProt P17612).
Experiment [4] concerns the target Death-associated protein kinase 3 (Homo sapiens, UniProt O43293).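 Note: measured as one member of a kinome-wide profiling panel.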
Experiment [5] concerns the target 5'-AMP-activated protein kinase catalytic subunit alpha-1 (Homo sapiens, UniProt Q13131).
For experiment [6], the target named is Cyclin-dependent kinase 7 (Homo sapiens, UniProt P50613).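 Note: value comes from a kinome-wide kinase profiling panel in which CDK7 is one member.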
Experiment [7] deals with Serine/threonine-protein kinase PAK 4 (Homo sapiens, UniProt O96013).
Experiment [8] addresses Rho-associated protein kinase 1 (Homo sapiens, UniProt Q13464).
Experiment [9] deals with Cyclin-dependent kinase 9 (Homo sapiens, UniProt P50750).
For experiment [10], the target named is Dual specificity tyrosine-phosphorylation-regulated kinase 1A (Homo sapiens, UniProt Q13627).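 Note: measured against DYRK1A as one member of a broad kinome profiling panel.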
The target in experiment [11] is Vascular endothelial growth factor receptor 2 (Homo sapiens, UniProt P35968).
Experiment [12] has as its target Serine/threonine-protein kinase Chk1 (Homo sapiens, UniProt O14757).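 Note: measured as one member of a kinome-wide kinase profiling panel.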
Experiment [13] has as its target Serine/threonine-protein kinase pim-1 (Homo sapiens, UniProt P11309).
Experiment [14] deals with Serine/threonine-protein kinase D3 (Homo sapiens, UniProt O94806).
Another experiment has as its target Activin receptor type-1 (Homo sapiens, UniProt Q04771). The experiment can be described thus: Navigating the Kinome. Panel member name: ACVR1.
Experiment [15] has as its target Dual specificity protein kinase CLK2 (Homo sapiens, UniProt P49760).
Experiment [16] deals with Leukocyte tyrosine kinase receptor (Homo sapiens, UniProt P29376). Kind of experiment: Navigating the Kinome. Panel member name: LTK.
For experiment [17], the target named is Mitogen-activated protein kinase kinase kinase kinase 4 (Homo sapiens, UniProt O95819).
The target of a further experiment is LIM domain kinase 1 (Homo sapiens, UniProt P53667). Kind of experiment: Navigating the Kinome. Panel member name: LIMK1.
The target of experiment [18] is Dual specificity protein kinase CLK4 (Homo sapiens, UniProt Q9HAZ1).
For experiment [19], the target named is Calcium/calmodulin-dependent protein kinase type II subunit alpha (Homo sapiens, UniProt Q9UQM7). The experiment can be described thus: Navigating the Kinome. Panel member name: CAMK2A.
For experiment [20], the target named is Mitogen-activated protein kinase kinase kinase kinase 2 (Homo sapiens, UniProt Q12851).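 Note: measured as one member of a kinome-wide kinase panel, with MAP4K2 as the panel entry.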
Experiment [21] deals with Serine/threonine-protein kinase TBK1 (Homo sapiens, UniProt Q9UHD2). The experiment can be described thus: Navigating the Kinome. Panel member name: TBK1.
Experiment [22] deals with Cyclin-dependent kinase 19 (Homo sapiens, UniProt Q9BWU1). Kind of experiment: Navigating the Kinome. Panel member name: CDC2L6.
Experiment [23] has as its target Mitogen-activated protein kinase 8 (Homo sapiens, UniProt P45983).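 Note: value comes from one member of a kinome-wide kinase profiling panel.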
Experiment [24] has as its target cAMP-dependent protein kinase catalytic subunit PRKX (Homo sapiens, UniProt P51817).
For experiment [25], the target named is Fibroblast growth factor receptor 1 (Homo sapiens, UniProt P11362).
Experiment [26] has as its target Cyclin-dependent kinase 8 (Homo sapiens, UniProt P49336). Kind of experiment: Navigating the Kinome. Panel member name: CDK8.
Experiment [27] has as its target Proto-oncogene tyrosine-protein kinase receptor Ret (Homo sapiens, UniProt P07949).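 Note: measured within a kinome-wide profiling panel, RET as the panel member.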
For experiment [28], the target named is Tyrosine-protein kinase receptor TYRO3 (Homo sapiens, UniProt Q06418).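 Note: TYRO3 value obtained as one member of a kinome-wide profiling panel.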
Experiment [29] deals with T1, Glycogen synthase kinase-3 alpha (Homo sapiens, UniProt P49840).
The target in experiment [30] is Protein kinase C theta type (Homo sapiens, UniProt Q04759). The experiment can be described thus: Navigating the Kinome. Panel member name: PRKCQ.
For experiment [31], the target named is Macrophage colony-stimulating factor 1 receptor (Homo sapiens, UniProt P07333).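 Note: value comes from the Navigating the Kinome screening panel, CSF1R member.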
In experiment [32] the target is Tyrosine-protein kinase ABL1 (Homo sapiens, UniProt P00519).
Experiment [33] addresses T2, Glycogen synthase kinase-3 beta (Homo sapiens, UniProt P49841).
Experiment [34] concerns the target Vascular endothelial growth factor receptor 1 (Homo sapiens, UniProt P17948).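 Note: measured within a kinome-wide profiling panel, FLT1 as the panel member.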
The target in experiment [35] is Macrophage-stimulating protein receptor (Homo sapiens, UniProt Q04912). The experiment can be described thus: Navigating the Kinome. Panel member name: MST1R.
Experiment [36] has as its target Leucine-rich repeat serine/threonine-protein kinase 2 (Homo sapiens, UniProt Q5S007).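 Note: value from a broad kinome-wide panel profiling study in which LRRK2 was one of the kinases tested.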
Experiment [37] concerns the target Ribosomal protein S6 kinase alpha-3 (Homo sapiens, UniProt P51812).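 Note: measured within a kinome-wide profiling panel.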
Experiment [38] addresses ALK tyrosine kinase receptor (Homo sapiens, UniProt Q9UM73).
Experiment [39] has as its target Dual specificity mitogen-activated protein kinase kinase 1 (Homo sapiens, UniProt Q02750). The experiment can be described thus: Navigating the Kinome. Panel member name: MAP2K1.
Experiment [40] has as its target T1, Glycogen synthase kinase-3 alpha. The experiment can be described thus: human GSK3 alpha kinase inhibition, dose response, selectivity assay for GSK3beta inhibitor project, biochemical, microfluidics, dry powder samples, set 2 (AID 623978).
Experiment [41] concerns the target Cyclin-dependent kinase 5/CDK5 activator 1 (Homo sapiens, UniProt Q00535). Kind of experiment: CDK5-p25 kinase inhibition, dose response, selectivity assay for GSK3beta inhibitor project, biochemical, microfluidic mobility shift, dry powder, set 2 (AID 623979).
The target in experiment [42] is T2, Glycogen synthase kinase-3 beta. The experiment can be described thus: GSK3beta kinase inhibitors, dose response, biochemical, microfluidics, dry powder samples, set 2 (AID 623989).
For experiment [43], the target named is Melanin-concentrating hormone receptor 1 (Homo sapiens, UniProt Q99705). The experiment can be described thus: Late-stage fluorescence-based counterscreen for antagonists of the G-protein coupled receptor 7 (GPR7): cell-based dose response assay to identify antagonists of the melanin-concentrating hormone receptor 1 (MCHR1) Set 5. In general terms: A counterscreen serves to expose hits that act by an unwanted route or on another target.

Experiment [44] concerns the target T3, Neuropeptides B/W receptor type 1 (Homo sapiens, UniProt P48145).
T3 sequence (P48145 whole entry): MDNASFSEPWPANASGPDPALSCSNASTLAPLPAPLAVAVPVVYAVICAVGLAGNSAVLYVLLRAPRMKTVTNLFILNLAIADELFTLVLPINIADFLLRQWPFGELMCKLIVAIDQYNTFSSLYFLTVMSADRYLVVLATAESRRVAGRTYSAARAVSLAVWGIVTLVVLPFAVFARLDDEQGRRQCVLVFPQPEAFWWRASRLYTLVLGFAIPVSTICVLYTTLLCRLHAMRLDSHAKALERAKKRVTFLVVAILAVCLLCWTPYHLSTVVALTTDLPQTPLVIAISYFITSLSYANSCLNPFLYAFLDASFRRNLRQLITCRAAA
Kind of experiment: GPR7 antagonist potency, late-stage follow-up, cell-based, fluorescence, dose response, set 5 (AID 588566).

Activity calls are given as the source filed them.

T1 sequence (P49840 whole entry): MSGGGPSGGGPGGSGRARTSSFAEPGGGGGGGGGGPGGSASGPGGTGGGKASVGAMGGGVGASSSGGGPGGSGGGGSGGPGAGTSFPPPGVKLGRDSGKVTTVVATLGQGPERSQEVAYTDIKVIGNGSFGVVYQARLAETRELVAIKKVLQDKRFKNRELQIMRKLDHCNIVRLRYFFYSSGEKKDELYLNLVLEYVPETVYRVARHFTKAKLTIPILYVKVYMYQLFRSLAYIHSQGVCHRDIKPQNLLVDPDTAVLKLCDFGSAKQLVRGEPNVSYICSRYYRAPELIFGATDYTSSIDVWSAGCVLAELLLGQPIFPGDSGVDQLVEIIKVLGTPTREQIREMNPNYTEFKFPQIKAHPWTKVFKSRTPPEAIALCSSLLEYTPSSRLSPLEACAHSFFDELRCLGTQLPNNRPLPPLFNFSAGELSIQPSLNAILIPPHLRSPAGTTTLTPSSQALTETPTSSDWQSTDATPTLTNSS
T2 sequence (P49841 whole entry): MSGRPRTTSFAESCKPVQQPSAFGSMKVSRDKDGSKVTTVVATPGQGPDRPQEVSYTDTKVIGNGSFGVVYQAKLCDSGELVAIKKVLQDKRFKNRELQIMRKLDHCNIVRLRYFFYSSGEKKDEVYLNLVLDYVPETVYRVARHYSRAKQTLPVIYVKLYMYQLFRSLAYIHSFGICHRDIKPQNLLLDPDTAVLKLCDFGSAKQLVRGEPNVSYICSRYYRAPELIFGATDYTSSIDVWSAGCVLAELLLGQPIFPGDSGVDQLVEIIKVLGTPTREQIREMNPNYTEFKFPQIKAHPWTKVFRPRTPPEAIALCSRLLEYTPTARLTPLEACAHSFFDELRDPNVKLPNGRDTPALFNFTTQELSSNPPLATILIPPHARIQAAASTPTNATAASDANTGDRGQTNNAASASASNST
Sequence of Ribosomal protein S6 kinase alpha-3 (P51812 whole entry): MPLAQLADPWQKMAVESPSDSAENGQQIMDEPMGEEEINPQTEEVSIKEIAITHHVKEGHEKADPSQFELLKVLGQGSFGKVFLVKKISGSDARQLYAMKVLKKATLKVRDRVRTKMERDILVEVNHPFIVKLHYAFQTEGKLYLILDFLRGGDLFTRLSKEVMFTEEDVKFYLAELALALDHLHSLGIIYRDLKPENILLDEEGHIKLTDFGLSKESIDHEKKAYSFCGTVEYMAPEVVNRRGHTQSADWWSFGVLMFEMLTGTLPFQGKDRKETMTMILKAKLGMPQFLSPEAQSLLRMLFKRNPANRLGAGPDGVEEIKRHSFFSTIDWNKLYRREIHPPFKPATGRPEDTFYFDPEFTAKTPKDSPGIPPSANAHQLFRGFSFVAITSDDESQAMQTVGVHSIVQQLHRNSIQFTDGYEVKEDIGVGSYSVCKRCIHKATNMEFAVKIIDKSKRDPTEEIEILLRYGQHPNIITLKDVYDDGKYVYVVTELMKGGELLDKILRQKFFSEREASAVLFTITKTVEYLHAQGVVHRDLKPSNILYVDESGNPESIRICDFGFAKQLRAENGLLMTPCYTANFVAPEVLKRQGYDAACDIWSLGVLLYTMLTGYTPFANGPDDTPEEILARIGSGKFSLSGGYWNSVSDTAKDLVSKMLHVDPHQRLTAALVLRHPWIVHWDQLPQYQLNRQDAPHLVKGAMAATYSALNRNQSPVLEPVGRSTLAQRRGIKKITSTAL
Sequence of ALK tyrosine kinase receptor (Q9UM73 whole entry): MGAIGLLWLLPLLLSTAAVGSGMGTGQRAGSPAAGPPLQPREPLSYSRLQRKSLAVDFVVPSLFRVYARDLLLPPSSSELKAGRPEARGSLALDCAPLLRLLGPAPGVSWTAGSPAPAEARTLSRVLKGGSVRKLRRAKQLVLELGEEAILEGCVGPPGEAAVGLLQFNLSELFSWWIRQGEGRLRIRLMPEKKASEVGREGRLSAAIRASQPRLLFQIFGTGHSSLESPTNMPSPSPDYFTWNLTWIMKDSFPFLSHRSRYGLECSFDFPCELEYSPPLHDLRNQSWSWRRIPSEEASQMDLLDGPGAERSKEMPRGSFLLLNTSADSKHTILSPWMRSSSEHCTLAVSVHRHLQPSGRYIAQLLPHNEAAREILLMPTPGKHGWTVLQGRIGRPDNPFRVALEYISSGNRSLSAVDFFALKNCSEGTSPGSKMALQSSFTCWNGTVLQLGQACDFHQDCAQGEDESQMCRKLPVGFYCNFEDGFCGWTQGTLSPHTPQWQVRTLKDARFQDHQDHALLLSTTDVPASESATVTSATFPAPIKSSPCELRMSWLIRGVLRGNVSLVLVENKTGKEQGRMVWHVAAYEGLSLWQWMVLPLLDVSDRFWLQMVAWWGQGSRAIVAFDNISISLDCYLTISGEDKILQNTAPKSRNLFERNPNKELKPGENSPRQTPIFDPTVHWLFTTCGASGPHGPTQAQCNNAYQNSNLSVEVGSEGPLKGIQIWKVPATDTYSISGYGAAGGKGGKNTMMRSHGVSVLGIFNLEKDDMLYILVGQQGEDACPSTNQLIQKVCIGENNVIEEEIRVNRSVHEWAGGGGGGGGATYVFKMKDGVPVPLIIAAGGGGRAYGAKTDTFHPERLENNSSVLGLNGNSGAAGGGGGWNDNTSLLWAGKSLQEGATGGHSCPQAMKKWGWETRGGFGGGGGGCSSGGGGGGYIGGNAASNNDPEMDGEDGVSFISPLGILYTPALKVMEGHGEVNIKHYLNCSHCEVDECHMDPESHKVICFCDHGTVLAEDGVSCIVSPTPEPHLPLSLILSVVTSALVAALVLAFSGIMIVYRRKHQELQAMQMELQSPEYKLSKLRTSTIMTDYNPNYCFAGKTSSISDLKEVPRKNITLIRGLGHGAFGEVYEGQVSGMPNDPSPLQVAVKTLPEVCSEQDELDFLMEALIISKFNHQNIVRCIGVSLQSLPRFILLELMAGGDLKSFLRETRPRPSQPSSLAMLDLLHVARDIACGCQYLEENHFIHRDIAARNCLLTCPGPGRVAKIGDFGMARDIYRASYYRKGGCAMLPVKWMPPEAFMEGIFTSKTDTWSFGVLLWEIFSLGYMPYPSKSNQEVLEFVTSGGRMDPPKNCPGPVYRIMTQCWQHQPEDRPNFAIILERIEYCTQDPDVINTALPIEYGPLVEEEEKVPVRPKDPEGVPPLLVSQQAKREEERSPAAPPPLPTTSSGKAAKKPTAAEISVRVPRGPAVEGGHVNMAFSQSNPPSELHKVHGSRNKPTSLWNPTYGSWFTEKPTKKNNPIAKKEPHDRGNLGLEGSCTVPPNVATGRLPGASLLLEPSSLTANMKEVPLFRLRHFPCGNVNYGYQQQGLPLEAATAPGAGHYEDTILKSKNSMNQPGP
Sequence of Protein kinase C theta type (Q04759 whole entry): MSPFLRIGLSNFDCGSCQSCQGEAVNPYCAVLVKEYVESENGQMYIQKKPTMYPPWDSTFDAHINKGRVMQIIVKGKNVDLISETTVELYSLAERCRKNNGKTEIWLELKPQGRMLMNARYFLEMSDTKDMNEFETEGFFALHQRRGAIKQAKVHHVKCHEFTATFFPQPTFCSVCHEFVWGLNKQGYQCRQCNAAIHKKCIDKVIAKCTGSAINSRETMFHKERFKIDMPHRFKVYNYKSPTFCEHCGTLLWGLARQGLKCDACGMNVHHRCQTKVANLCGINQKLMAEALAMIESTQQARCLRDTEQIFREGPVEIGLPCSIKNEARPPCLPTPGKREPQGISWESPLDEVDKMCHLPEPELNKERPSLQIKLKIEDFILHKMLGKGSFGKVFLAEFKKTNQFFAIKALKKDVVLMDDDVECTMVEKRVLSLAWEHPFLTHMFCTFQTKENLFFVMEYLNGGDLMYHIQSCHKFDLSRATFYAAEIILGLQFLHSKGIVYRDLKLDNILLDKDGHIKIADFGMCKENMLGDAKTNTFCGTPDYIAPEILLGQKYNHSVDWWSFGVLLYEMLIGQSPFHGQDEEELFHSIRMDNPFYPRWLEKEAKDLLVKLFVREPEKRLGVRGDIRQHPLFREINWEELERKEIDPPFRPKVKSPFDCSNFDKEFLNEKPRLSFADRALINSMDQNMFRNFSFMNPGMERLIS
Sequence of Aurora kinase A (O14965 whole entry): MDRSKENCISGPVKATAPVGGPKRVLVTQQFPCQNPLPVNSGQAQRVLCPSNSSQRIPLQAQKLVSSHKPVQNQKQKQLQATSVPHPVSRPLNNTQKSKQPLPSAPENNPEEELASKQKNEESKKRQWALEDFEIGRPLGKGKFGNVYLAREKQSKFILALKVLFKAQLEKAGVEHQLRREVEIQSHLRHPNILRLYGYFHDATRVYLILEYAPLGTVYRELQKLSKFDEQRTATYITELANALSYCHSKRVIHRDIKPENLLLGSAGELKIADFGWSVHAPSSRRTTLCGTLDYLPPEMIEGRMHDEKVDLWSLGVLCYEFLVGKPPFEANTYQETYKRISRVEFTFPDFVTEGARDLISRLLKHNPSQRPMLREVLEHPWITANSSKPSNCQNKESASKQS
Sequence of Dual specificity tyrosine-phosphorylation-regulated kinase 1B (Q9Y463 whole entry, canonical isoform): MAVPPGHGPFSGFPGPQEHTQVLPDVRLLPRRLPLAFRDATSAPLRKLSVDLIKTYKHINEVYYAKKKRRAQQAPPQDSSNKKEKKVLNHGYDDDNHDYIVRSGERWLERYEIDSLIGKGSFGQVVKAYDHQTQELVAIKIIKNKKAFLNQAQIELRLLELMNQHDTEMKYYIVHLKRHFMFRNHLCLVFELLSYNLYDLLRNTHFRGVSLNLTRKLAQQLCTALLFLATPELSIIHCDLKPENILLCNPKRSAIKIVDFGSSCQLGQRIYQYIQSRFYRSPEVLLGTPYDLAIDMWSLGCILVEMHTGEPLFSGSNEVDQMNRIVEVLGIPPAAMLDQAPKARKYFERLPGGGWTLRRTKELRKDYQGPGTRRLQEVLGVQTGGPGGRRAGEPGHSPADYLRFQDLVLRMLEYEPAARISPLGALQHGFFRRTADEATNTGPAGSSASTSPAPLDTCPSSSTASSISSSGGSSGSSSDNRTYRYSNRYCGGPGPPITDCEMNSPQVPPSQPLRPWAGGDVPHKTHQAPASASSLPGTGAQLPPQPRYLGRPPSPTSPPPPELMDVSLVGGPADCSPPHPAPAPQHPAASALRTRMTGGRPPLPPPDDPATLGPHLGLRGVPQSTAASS

In general, Ki refers to the dissociation constant of the complex between target and ligand, obtained from inhibition or displacement. `NC(=O)c1cc2ccncc2s1`: the Ki in [1] was 1.26 µM (active); in experiment [2], 1.58 µM (active); in experiment [3], 3.98 µM (active); in experiment [4], 2.51 µM (active); in [5], 31.6 µM (active); in experiment [6] it was 12.6 µM (active). The Ki in experiment [7] is 79.4 µM (active); in [8], 1.58 µM (active); in experiment [9], 0.501 µM (active); on Aurora kinase B, 31.6 µM (active); in experiment [10], 3.16 µM (active); in experiment [11] it was 7.94 µM (active). The Ki in experiment [12] was 12.6 µM (active); in [13], 39.8 µM (active); in experiment [14], 39.8 µM (active); at Activin receptor type-1, 79.4 µM (active); in [15] it was 15.8 µM (active); in experiment [16], 12.6 µM (active). Besides, the inhibition constant (Ki) at Aurora kinase A is 63.1 µM (active); in [17] it was 25.1 µM (active); on LIM domain kinase 1 it was 15.8 µM (active); in [18], 0.794 µM (active); in experiment [19], 79.4 µM (active); in [20], 10 µM (active). The inhibition constant (Ki) is 79.4 µM (active) in experiment [21]; > 100 µM (inactive) in [22]; 63.1 µM (active) in experiment [23]; 15.8 µM (active) in experiment [24]; 63.1 µM (active) in experiment [25]; 0.794 µM (active) in experiment [26]. Moreover, the Ki in experiment [27] was 63.1 µM (active); in experiment [28] it was 79.4 µM (active); in [29], 3.98 µM (active); in [30] it was 3.16 µM (active); in [31] it was > 100 µM (inactive); in experiment [32] it was 79.4 µM (active). Besides, the Ki in [33] was 5.01 µM (active); on Focal adhesion kinase 1, 100 µM (active); in experiment [34], 7.94 µM (active); in experiment [35], 39.8 µM (active); in experiment [36], 10 µM (active); in experiment [37], 25.1 µM (active). The Ki in experiment [38] was 63.1 µM (active); in [39] it was 10 µM (active).
The term AC50 denotes the concentration at which the activity in the assay is half-maximal. As for `COc1cc(/C=N/n2c(S)nnc2C2CCCCC2)cc(Br)c1O`, the values for the AC50 in [40], in [41] and in experiment [42] were 10.4 µM (active), 16.8 µM (active) and 0.958 µM (active), respectively.
For orientation: IC50 means the midpoint of a concentration-inhibition curve. Take `COc1cccc(C(C#N)c2c(Cl)cnn(Cc3cccc4ccccc34)c2=O)c1` (centres undefined): the IC50 in [43] is 12.1 µM (inactive); in experiment [44], 0.569 µM (active).
